Data reported in PubChem BioAssay (NCI).
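Cells were grown in 96-well plates and exposed to each compound for 48 hours at five concentrations; endpoints were interpolated linearly between bracketing concentrations, or set to the highest concentration if not reached. GI50 marks 50% less growth. TGI: concentration producing complete growth inhibition.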

Experiments:
Test in all cases: NCI-60 cell line screen, 48 h
CAKI-1 renal = system: CAKI-1 renal
KM12 colon = system: KM12 colon
UACC-257 melanoma = system: UACC-257 melanoma
RXF 393 renal = system: RXF 393 renal
MALME-3M melanoma = system: MALME-3M melanoma
SK-MEL-5 melanoma = system: SK-MEL-5 melanoma
COLO 205 colon = system: COLO 205 colon
786-0 renal = system: 786-0 renal
M14 melanoma = system: M14 melanoma
MDA-MB-231 breast = system: MDA-MB-231 breast
HT29 colon = system: HT29 colon
HOP-92 NSCLC = system: HOP-92 NSCLC
HS 578T breast = system: HS 578T breast
SF-295 CNS = system: SF-295 CNS
MDA-MB-435 = system: MDA-MB-435
SN12C renal = system: SN12C renal
OVCAR-5 ovarian = system: OVCAR-5 ovarian
MCF7 breast = system: MCF7 breast
SK-MEL-28 melanoma = system: SK-MEL-28 melanoma
A498 renal = system: A498 renal
HCT-15 colon = system: HCT-15 colon
OVCAR-8 ovarian = system: OVCAR-8 ovarian
UACC-62 melanoma = system: UACC-62 melanoma
SW-620 colon = system: SW-620 colon
SF-268 CNS = system: SF-268 CNS
HOP-62 NSCLC = system: HOP-62 NSCLC
K-562 leukemia = system: K-562 leukemia
SF-539 CNS = system: SF-539 CNS
T-47D breast = system: T-47D breast
SNB-75 CNS = system: SNB-75 CNS
HL-60(TB) leukemia = system: HL-60(TB) leukemia
LOX IMVI melanoma = system: LOX IMVI melanoma
NCI-H460 lung = system: NCI-H460 lung
TK-10 renal = system: TK-10 renal
OVCAR-4 ovarian = system: OVCAR-4 ovarian
DU-145 prostate = system: DU-145 prostate
HCC-2998 colon = system: HCC-2998 colon
SK-MEL-2 melanoma = system: SK-MEL-2 melanoma
BT-549 breast = system: BT-549 breast
ACHN renal = system: ACHN renal
HCT-116 colon = system: HCT-116 colon
NCI-H23 lung = system: NCI-H23 lung
OVCAR-3 ovarian = system: OVCAR-3 ovarian
SK-OV-3 ovarian = system: SK-OV-3 ovarian
EKVX NSCLC = system: EKVX NSCLC
NCI-H522 lung = system: NCI-H522 lung
U251 CNS = system: U251 CNS
MOLT-4 leukemia = system: MOLT-4 leukemia
SR leukemia = system: SR leukemia
SNB-19 CNS = system: SNB-19 CNS
NCI/ADR-RES ovarian = system: NCI/ADR-RES ovarian
PC-3 prostate = system: PC-3 prostate
CCRF-CEM leukemia = system: CCRF-CEM leukemia
NCI-H226 lung = system: NCI-H226 lung
A549 NSCLC = system: A549 NSCLC
RPMI-8226 leukemia = system: RPMI-8226 leukemia
IGROV1 ovarian = system: IGROV1 ovarian
UO-31 renal = system: UO-31 renal

In the case of Nc1n[nH]c2cccc(C#Cc3cccc(NC(=O)c4ccc(N5CCOCC5)c(C(F)(F)F)c4)c3)c12, the GI50 (CAKI-1 renal) is reported as 1130 nM, the TGI (CAKI-1 renal) is reported as 2910 nM and the GI50 (KM12 colon) is reported as 1290 nM. For the same molecule, the TGI (KM12 colon) was 2910 nM, the GI50 (UACC-257 melanoma) was 1770 nM and the TGI (UACC-257 melanoma) was 4380 nM. The GI50 (RXF 393 renal) was 1020 nM, the TGI (RXF 393 renal) was 2830 nM and the GI50 (MALME-3M melanoma) was 540 nM. The TGI (MALME-3M melanoma) was 2120 nM, the GI50 (SK-MEL-5 melanoma) was 1560 nM and the TGI (SK-MEL-5 melanoma) was 3000 nM. For the same molecule, the GI50 (COLO 205 colon) was 525 nM, the TGI (COLO 205 colon) was 2330 nM and the GI50 (786-0 renal) was 2840 nM. For the same molecule, the TGI (786-0 renal) was 7840 nM, the GI50 (M14 melanoma) was 473 nM and the TGI (M14 melanoma) was 2200 nM. The GI50 (MDA-MB-231 breast) was 720 nM, the TGI (MDA-MB-231 breast) was 2600 nM and the GI50 (HT29 colon) was 632 nM. For the same molecule, the TGI (HT29 colon) was 4550 nM, the GI50 (HOP-92 NSCLC) was 768 nM and the TGI (HOP-92 NSCLC) was 3140 nM. It also gave a GI50 (HS 578T breast) of 508 nM, a TGI (HS 578T breast) of 3770 nM and a GI50 (SF-295 CNS) of 1370 nM. For the same molecule, the TGI (SF-295 CNS) was 5200 nM, the GI50 (MDA-MB-435) was 1090 nM and the TGI (MDA-MB-435) was 3310 nM. It also gave a GI50 (SN12C renal) of 1560 nM, a TGI (SN12C renal) of 5800 nM and a GI50 (OVCAR-5 ovarian) of 599 nM. For the same molecule, the TGI (OVCAR-5 ovarian) was 5260 nM, the GI50 (MCF7 breast) was 1800 nM and the TGI (MCF7 breast) was 7860 nM. It also gave a GI50 (SK-MEL-28 melanoma) of 867 nM, a TGI (SK-MEL-28 melanoma) of 2720 nM and a GI50 (A498 renal) of 384 nM. For the same molecule, the TGI (A498 renal) was 2090 nM, the GI50 (HCT-15 colon) was 1540 nM and the TGI (HCT-15 colon) was 6440 nM. For the same molecule, the GI50 (OVCAR-8 ovarian) was 1920 nM, the TGI (OVCAR-8 ovarian) was 6830 nM and the GI50 (UACC-62 melanoma) was 622 nM. The TGI (UACC-62 melanoma) was 2550 nM, the GI50 (SW-620 colon) was 1130 nM and the TGI (SW-620 colon) was 5950 nM. For the same molecule, the GI50 (SF-268 CNS) was 1300 nM, the TGI (SF-268 CNS) was 5350 nM and the GI50 (HOP-62 NSCLC) was 1490 nM. For the same molecule, the TGI (HOP-62 NSCLC) was 4390 nM, the TGI (K-562 leukemia) was 13500 nM and the GI50 (SF-539 CNS) was 310 nM. It also gave a TGI (SF-539 CNS) of 1540 nM, a GI50 (T-47D breast) of 1060 nM and a TGI (T-47D breast) of 3680 nM. It also gave a GI50 (SNB-75 CNS) of 1070 nM, a TGI (SNB-75 CNS) of 2470 nM and a GI50 (HL-60(TB) leukemia) of 1400 nM. For the same molecule, the TGI (HL-60(TB) leukemia) was 10500 nM, the GI50 (LOX IMVI melanoma) was 944 nM and the TGI (LOX IMVI melanoma) was 2160 nM. The GI50 (NCI-H460 lung) was 1460 nM, the TGI (NCI-H460 lung) was 3190 nM and the GI50 (TK-10 renal) was 2050 nM. It also gave a TGI (TK-10 renal) of 4400 nM, a GI50 (OVCAR-4 ovarian) of 1060 nM and a TGI (OVCAR-4 ovarian) of 2980 nM. It also gave a GI50 (DU-145 prostate) of 1810 nM, a TGI (DU-145 prostate) of 4370 nM and a GI50 (HCC-2998 colon) of 1320 nM. For the same molecule, the TGI (HCC-2998 colon) was 3150 nM, the GI50 (SK-MEL-2 melanoma) was 855 nM and the TGI (SK-MEL-2 melanoma) was 3250 nM. For the same molecule, the GI50 (BT-549 breast) was 2080 nM, the TGI (BT-549 breast) was 6800 nM and the GI50 (ACHN renal) was 725 nM. It also gave a TGI (ACHN renal) of 4780 nM, a GI50 (HCT-116 colon) of 653 nM and a TGI (HCT-116 colon) of 2330 nM. For the same molecule, the GI50 (NCI-H23 lung) was 1370 nM, the TGI (NCI-H23 lung) was 4600 nM and the GI50 (OVCAR-3 ovarian) was 1490 nM. For the same molecule, the TGI (OVCAR-3 ovarian) was 5060 nM, the GI50 (SK-OV-3 ovarian) was 2090 nM and the TGI (SK-OV-3 ovarian) was 5250 nM. The GI50 (EKVX NSCLC) was 1610 nM, the TGI (EKVX NSCLC) was 4170 nM and the GI50 (NCI-H522 lung) was 1150 nM. The TGI (NCI-H522 lung) was 3560 nM, the GI50 (U251 CNS) was 2060 nM and the TGI (U251 CNS) was 7410 nM. The GI50 (MOLT-4 leukemia) was 1310 nM, the TGI (MOLT-4 leukemia) was 5710 nM and the GI50 (SR leukemia) was 2400 nM. For the same molecule, the TGI (SR leukemia) was > 100000 nM, the GI50 (SNB-19 CNS) was 2750 nM and the TGI (SNB-19 CNS) was 7390 nM. For the same molecule, the GI50 (NCI/ADR-RES ovarian) was 2250 nM, the TGI (NCI/ADR-RES ovarian) was 7650 nM and the GI50 (PC-3 prostate) was 1930 nM. For the same molecule, the TGI (PC-3 prostate) was 6830 nM, the GI50 (CCRF-CEM leukemia) was 1360 nM and the TGI (CCRF-CEM leukemia) was 6580 nM. The GI50 (NCI-H226 lung) was 68.7 nM, the TGI (NCI-H226 lung) was 8530 nM and the GI50 (A549 NSCLC) was 1800 nM. It also gave a TGI (A549 NSCLC) of 6050 nM, a GI50 (RPMI-8226 leukemia) of 1980 nM and a TGI (RPMI-8226 leukemia) of 6500 nM. It also gave a GI50 (IGROV1 ovarian) of 682 nM, a TGI (IGROV1 ovarian) of 3540 nM and a GI50 (UO-31 renal) of 567 nM. The TGI (UO-31 renal) was 2920 nM.
